Tests used:
[1] = test system: pulmonary neutrophil infiltration; assay: Pulmonary neutrophil infiltration-inhibiting activity in SD rats (LPS inhalation, MPO activity in BALF); assay type: in vivo; conditions: @3 mg/Kg, orally 15 minutes before LPS inhalation; BAL 4 hours after LPS; MPO activity as index; inhibiting rate relative to control
Method: Inhalation of lipopolysaccharide (hereinafter abbreviated to as LPS) was carried out by modifying the method of Moraes et al. (Br. J. Pharmacol., 123, 631 (1998)). SD rats (male, 5-weeks old, supplied by CHARLES RIVER LABORATORIES JAPAN, INC.) fasted 24 hours before administration of a compound were kept in a plastic cage, and inhalated LPS (L2880-500MG, available from SIGMA Inc.) (0.1 mg/ml) dissolved in physiological saline for 30 minutes. An ultrasonic nebulizer (NE-U12, manufactured by Omron Corporation) was used for inhalation.
A compound to be tested is dissolved (10 ml/Kg) in mixed solution of polyethylene glycol (hereinafter abbreviated to as PEG) and water, and orally administered 15 minutes before the inhalation of LPS. For the control group, 50% PEG solution was administered.
Bronchoalveolar lavage (hereinafter abbreviated to as BAL) was carried out as mentioned below 4 hours after the inhalation of LPS. […] 3.5 ml of physiological saline containing heparin (1 U/ml) was injected by using a disposable injection syringe (5 ml volume, manufactured by Terumo Corporation), and immediately recovered. This operation was repeated four times to obtain a bronchioalveolar lavage fluid (hereinafter abbreviated to as BALF). BALF was centrifugated (at 2500 rpm, 10 minutes, 4° C.), and 1 ml of 0.5% hexadecyltrimethylammonium bromide (030-02105, available from Wako Pure Chemical Industries, Ltd.) was added to the precipitated cells. Thereafter, a freeze-thaw operation (−80° C./37° C.) was repeated three times to destroy the cells.
As an index of a number of neutrophil, measurement of myeloperoxidase (hereinafter abbreviated to as MPO) activity was carried out as follows. Measurement of MPO activity was carried out by partially modifying the method of Krawisz et al. (GASTROENTEROLOGY, 1344 (1984)). To cell dissolved solution was added 50 mM phosphate buffer solution (pH 6.0) containing o-dianisidine hydrochloride (0.2 mg/ml) and 0.005% hydrogen peroxide, and change in absorbance at 450 nm was measured. As a MPO standard substance, MPO from human sputum (available from Elastin Products Company Inc.) was used. Measurement of absorbance was carried out by using a Microplate Reader (MTP-32, manufactured by Corona Electric Co., Ltd.).
An inhibiting rate of the compound to be tested relative to the control was calculated.

[2] = test system: cynomulgus monkey; assay: Emetic action test in cynomulgus monkey; conditions: suspended in 0.5% aqueous methyl cellulose, administered nasally; emesis observed for 24 hours; 3 or 4 monkeys per dose
Method: The compound to be tested was suspended in 0.5% aqueous methyl cellulose solution (5 ml/Kg), and administered nasally.
With respect to each dose, each administered to 3 or 4 monkeys, and a dose in which emesis had not been admitted in all monkeys was made a maximum non-emesis dose.

[3] = target: PDE4; assay: Measurement of PDE4 enzyme inhibiting action; assay type: biochemical, human; conditions: PDE4 enzyme solution from polymorphonuclear leukocytes of healthy volunteer; 0.2 μM [3H]cAMP, 30° C., 30 minutes; read-out: PDE4 inhibition IC50 value
Method: Preparation of a PDE4 enzyme solution was carried out according to the method of Cooper et al. (Br. J. Pharmacol., 126, 1863 (1999)) by modifying a part thereof. Heparin-treated peripheral blood from healthy volunteer was stratified by a blood cell separating solution (Polymorphprep™, available from AXIS-SHIELD PoC AS CO.), and centrifugation was carried out at 20° C. with 1900 rpm for 27 minutes to obtain polymorphonuclear leukocytes. The polymorphonuclear leukocytes were washed with a Hanks' balanced salt solution, then, a mixed solution comprising 70% of 10 mM 3-morpholinopropane sulfonic acid buffer solution (pH 7.4) containing 1 mM EGTA, 1 mM magnesium acetate and 5 mM dithiothreitol and 30% of ethylene glycol was added thereto to dissolve the same under ice-cooling, and the obtained cell dissolved solution was used as a PDE4 enzyme solution.
Measurement of PDE4 activity was carried out according to the method of Owens, et al. (Biochem. J., 326, 53 (1997)) by modifying a part thereof. The PDE4 enzyme solution was incubated with a compound to be tested dissolved in dimethylsulfoxide in 80 mM Tris-HCl buffer solution (pH 7.4) containing 0.2 μM [^3H] cAMP, 0.1 mM cGMP, 20 mM MgCl2 and 12 mM 2-mercaptoethanol at 30° C. for 30 minutes. Trifluoroacetic acid (final concentration: 1%) was added to the mixture to stop the reaction, and the reaction mixture was added to neutral alumina column (BOND ELUT™, available from VARIAN INC.). After the column was washed with 100 mM Tris-HCl buffer solution (pH 8.0), [^3H] 5′-AMP was eluted with 2N sodium hydroxide solution, and radioactivity of the eluent was measured by a liquid scintillation analyzer.
A concentration of the compound to be tested which inhibits 50% of PDE4 activity was calculated from the relation between the concentration of the compound to be tested which had been added and PDE4 activity as an IC50 value.

| Compound | Rat pulmonary neutrophil infiltration-inhibiting activity [1] | Monkey Maximum non-emesis dose [2] | melting point | IC50 [3] |
| --- | --- | --- | --- | --- |
| COCCc1c(-c2ccc(OC(F)F)c(OC3CC3)c2)[nH]c2cn[nH]c(=O)c12 [Example 66, 2-(3-Cyclopropoxy-4-difluoromethoxyphenyl)-3-(2-methoxyethyl)-1,5-dihydropyrrolo[2,3-d]pyridazin-4-one] | 69% | >10 mg/kg | 215 to 217 °C | – |
| CC#CCc1c(-c2ccc(OC(F)F)c(OC3CC3)c2)[nH]c2cn[nH]c(=O)c12 [Example 72, 3-(2-Butynyl)-2-(3-cyclopropoxy-4-difluoromethoxyphenyl)-1,5-dihydropyrrolo[2,3-d]pyridazin-4-one] | 76% | >10 mg/kg | 231 to 236 °C | – |
| CCc1c(-c2ccc(OC(F)F)c(OC3CC3)c2)[nH]c2cn[nH]c(=O)c12 [Example 5, 2-(3-Cyclopropoxy-4-difluoromethoxyphenyl)-3-ethyl-1,5-dihydropyrrolo[2,3-d]pyridazin-4-one] | – | >30 mg/kg | 223 to 225 °C | 3.4 nM |
| O=c1[nH]ncc2[nH]c(-c3ccc(OC(F)F)c(OC4CC4)c3)c(COCCF)c12 [Example 61, 2-(3-Cyclopropoxy-4-difluoromethoxyphenyl)-3-(2-fluoroethoxymethyl)-1,5-dihydropyrrolo[2,3-d]pyridazin-4-one] | 59% | – | – | – |
| O=c1[nH]ncc2[nH]c(-c3ccc(OC(F)F)c(OC4CC4)c3)c(Cc3ccccc3F)c12 [Example 22, 2-(3-Cyclopropoxy-4-difluoromethoxyphenyl)-3-(2-fluorobenzyl)-1,5-dihydropyrrolo[2,3-d]pyridazin-4-one] | 78% | – | 202 to 204 °C | – |
| CCOCc1c(-c2ccc(OC(F)F)c(OC3CC3)c2)[nH]c2cn[nH]c(=O)c12 [Example 12, 2-(3-Cyclopropoxy-4-difluoromethoxyphenyl)-3-ethoxymethyl-1,5-dihydropyrrolo[2,3-d]pyridazin-4-one] | – | 3 mg/kg | 141 to 143 °C | 4.6 nM |
| O=C(Nc1c(Cl)cncc1Cl)c1ccc(OC(F)F)c(OCC2CC2)c1 [compound A, N-(3,5-dichloro-4-pyridyl)-3-cyclopropylmethoxy-4-difluoromethoxybenzamide, reference compound] | – | 0.1 mg/kg | – | – |
| CC(C)COCc1c(-c2ccc(OC(F)F)c(OC3CC3)c2)[nH]c2cn[nH]c(=O)c12 [Example 62, 2-(3-Cyclopropoxy-4-difluoromethoxyphenyl)-3-isobutoxymethyl-1,5-dihydropyrrolo[2,3-d]pyridazin-4-one] | – | >10 mg/kg | 162 to 164 °C | 0.41 nM |
| O=c1[nH]ncc2[nH]c(-c3ccc(OC(F)F)c(OC4CC4)c3)c(CC3CC3)c12 [Example 15, 2-(3-Cyclopropoxy-4-difluoromethoxyphenyl)-3-cyclopropylmethyl-1,5-dihydropyrrolo[2,3-d]pyridazin-4-one] | 73% | – | 204 to 206 °C | – |
